Test results: EPA's CvTdb concentration-time database

Legend:
Rat [1] = assay: concentration in liver after dosing; settings: 1848 h; dosed: Perfluorooctane Sulfonate; 2 mg/kg; oral; Female; Harlan Sprague Dawley
Rat [2] = assay: concentration in brain after dosing; settings: 1848 h; dosed: Perfluorooctane Sulfonate; 20 mg/kg; oral; Male; Harlan Sprague Dawley
Rat [3] = assay: concentration in brain after dosing; settings: 3360 h; dosed: Perfluorooctane Sulfonate; 20 mg/kg; oral; Male; Harlan Sprague Dawley
Rat [4] = assay: concentration in brain after dosing; settings: 6 h; dosed: Perfluorooctane Sulfonate; 20 mg/kg; oral; Female; F344
Rat [5] = assay: concentration in liver after dosing; settings: 24 h; dosed: Perfluorooctane Sulfonate; 2 mg/kg; oral; Female; Harlan Sprague Dawley
Rat [6] = assay: concentration in liver after dosing; settings: 3360 h; dosed: Perfluorooctane Sulfonate; 2 mg/kg; oral; Female; Harlan Sprague Dawley
Rat [7] = assay: concentration in kidney after dosing; settings: 6 h; dosed: Perfluorooctane Sulfonate; 2 mg/kg; oral; Female; Harlan Sprague Dawley
Rat [8] = assay: concentration in liver after dosing; settings: 24 h; dosed: Perfluorooctane Sulfonate; 20 mg/kg; oral; Female; F344
Rat [9] = assay: concentration in kidney after dosing; settings: 864 h; dosed: Perfluorooctane Sulfonate; 2 mg/kg; oral; Female; Harlan Sprague Dawley
Rat [10] = assay: concentration in plasma after dosing; settings: 15 h; dosed: Gemfibrozil; 4.29 mg/kg; oral; Male; Sprague-Dawley
Rat [11] = assay: concentration in plasma after dosing; settings: 5 min; dosed: Gemfibrozil; 100 mg/kg; oral; Male; Sprague-Dawley
Rat [12] = assay: concentration in plasma after dosing; settings: 1 h; dosed: Gemfibrozil; 50 mg/kg; oral; Male; Sprague-Dawley
Rat [13] = assay: concentration in plasma after dosing; settings: 10 h; dosed: Gemfibrozil; 4.29 mg/kg; oral; Male; Sprague-Dawley
Rat [14] = assay: concentration in plasma after dosing; settings: 24 h; dosed: Gemfibrozil; 50 mg/kg; oral; Male; Sprague-Dawley
Rat [15] = assay: concentration in plasma after dosing; settings: 18 h; dosed: Gemfibrozil; 50 mg/kg; oral; Male; Sprague-Dawley
Rat [16] = assay: concentration in plasma after dosing; settings: 0.25 h; dosed: Gemfibrozil; 4.29 mg/kg; oral; Male; Sprague-Dawley
Rat [17] = assay: concentration in plasma after dosing; settings: 2 h; dosed: Gemfibrozil; 4.29 mg/kg; oral; Male; Sprague-Dawley
Rat [18] = assay: concentration in plasma after dosing; settings: 0.5 h; dosed: Gemfibrozil; 50 mg/kg; oral; Male; Sprague-Dawley
Rat [19] = assay: concentration in plasma after dosing; settings: 0.75 h; dosed: Perfluorohexanoic Acid; 80 mg/kg; oral; Male; Harlan Sprague Dawley
Rat [20] = assay: concentration in plasma after dosing; settings: dosed: Perfluorohexanoic Acid, 40 mg/kg, oral, Male, Harlan Sprague Dawley
Rat [21] = assay: concentration in brain after dosing; settings: 0.5 h; dosed: Perfluorohexanoic Acid; 80 mg/kg; oral; Female; Harlan Sprague Dawley
Rat [22] = assay: concentration in plasma after dosing; settings: 0.75 h; dosed: Perfluorohexanoic Acid; 40 mg/kg; iv; Male; F344
Rat [23] = assay: concentration in plasma after dosing; settings: dosed: Perfluorohexanoic Acid, 40 mg/kg, iv, Male, F344
Rat [24] = assay: concentration in plasma after dosing; settings: 3 h; dosed: Perfluorohexanoic Acid; 80 mg/kg; oral; Male; Harlan Sprague Dawley
Rat [25] = assay: concentration in plasma after dosing; settings: dosed: Perfluorohexanoic Acid, 40 mg/kg, oral, Male, Harlan Sprague Dawley; remark: listed apart in the source
Rat [26] = assay: concentration in brain after dosing; settings: 6 h; dosed: Fluorotelomer alcohol 8+2; 24 mg/kg; oral; Male; Harlan Sprague Dawley
Rat [27] = assay: concentration in plasma after dosing; settings: dosed: 678-39-7, 40 mg/kg, iv, Female, Harlan Sprague-Dawley
Rat [28] = assay: concentration in brain after dosing; settings: 6 h; dosed: Fluorotelomer alcohol 8+2; 80 mg/kg; oral; Female; Harlan Sprague Dawley
Rat [29] = assay: concentration in brain after dosing; settings: 1 h; dosed: Fluorotelomer alcohol 8+2; 80 mg/kg; oral; Female; Harlan Sprague Dawley
Rat [30] = assay: concentration in liver after dosing; settings: 12 h; dosed: Fluorotelomer alcohol 8+2; 80 mg/kg; oral; Female; Harlan Sprague Dawley
Rat [31] = assay: concentration in kidney after dosing; settings: 0.5 h; dosed: Fluorotelomer alcohol 8+2; 80 mg/kg; oral; Female; Harlan Sprague Dawley
Rat [32] = assay: concentration in brain after dosing; settings: 3 h; dosed: Fluorotelomer alcohol 8+2; 24 mg/kg; oral; Male; Harlan Sprague Dawley
Rat [33] = assay: concentration in kidney after dosing; settings: 3 h; dosed: Fluorotelomer alcohol 8+2; 80 mg/kg; oral; Female; Harlan Sprague Dawley
Rat [34] = assay: concentration in brain after dosing; settings: 2 min; dosed: 2-Methyltetrahydrofuran; 40 mg/kg; iv; Male; Harlan Sprague Dawley
Rat [35] = assay: concentration in brain after dosing; settings: 2 min; dosed: 2-Methyltetrahydrofuran; 40 mg/kg; iv; Female; Harlan Sprague Dawley
Rat [36] = assay: concentration in brain after dosing; settings: 1.5 h; dosed: 2-Methyltetrahydrofuran; 40 mg/kg; iv; Male; Harlan Sprague Dawley
Rat [37] = assay: concentration in brain after dosing; settings: 4 h; dosed: 2-Methyltetrahydrofuran; 40 mg/kg; iv; Female; Harlan Sprague Dawley

O=S(=O)([O-])C(F)(F)C(F)(F)C(F)(F)C(F)(F)C(F)(F)C(F)(F)C(F)(F)C(F)(F)F [Perfluorooctane Sulfonate]
Settings	concentration in brain [ng/g]	concentration in kidney [ng/g]	concentration in liver [ng/g]
Rat [1]	–	–	6900
Rat [2]	1320	–	–
Rat [3]	1260	–	–
Rat [4]	3990	–	–
Rat [5]	–	–	29400
Rat [6]	–	–	1350
Rat [7]	–	8350	–
Rat [8]	–	–	167000
Rat [9]	–	2960	–

Cc1ccc(C)c(OCCCC(C)(C)C(=O)O)c1 [Gemfibrozil]
Settings	concentration in plasma [µg/mL]
Rat [10]	0.285
Rat [11]	1.69
Rat [12]	3.37
Rat [13]	0.405
Rat [14]	0.754
Rat [15]	1.51
Rat [16]	1.64
Rat [17]	0.234
Rat [18]	7.8

O=C(O)C(F)(F)C(F)(F)C(F)(F)C(F)(F)C(F)(F)F [Perfluorohexanoic Acid]
Settings	concentration in brain [ng/g]	concentration in plasma [µg/mL]
Rat [19]	–	129
Rat [21]	943	–
Rat [22]	–	15.2
Rat [24]	–	76.1

Settings	concentration in plasma [µg/mL]
Rat [20], 0.5 h	59.9
Rat [20], 9 h	9.2
Rat [23], 3 h	1.45
Rat [23], 5 min	35.7
Rat [25], 1 h	39.4
Rat [25], 24 h	0.423

O=C(O)CCC(F)(F)C(F)(F)C(F)(F)C(F)(F)C(F)(F)C(F)(F)C(F)(F)F [Fluorotelomer acid 7+3]
Settings	concentration in brain [ng/g]	concentration in kidney [ng/g]	concentration in liver [ng/g]
Rat [26]	305	–	–
Rat [28]	1040	–	–
Rat [29]	277	–	–
Rat [30]	–	–	5690
Rat [31]	–	357	–
Rat [32]	440	–	–
Rat [33]	–	5820	–

Rat [27]
Settings	concentration in plasma [µg/mL]
0.75 h	1.83
12 h	0.863

CC1CCCO1 (stereo unspecified) [2-Methyltetrahydrofuran]
Settings	concentration in brain [µg/mL]
Rat [34]	34
Rat [35]	38
Rat [36]	7.3
Rat [37]	0.185
